Assay results taken from publication PMC6979384, “Characterization of the plant homeodomain (PHD) reader family for their histone tail interactions” (Epigenetics & Chromatin, 2020).

Columns and labels:
Experiment in all cases: Histone peptide microarray
Type in all cases: binding, human
Conditions in all cases: histone peptide array
[1] = tested on: PHF23
Method in brief: (§1)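 Binding of recombinant GST-fused PHD readers (0.5 μM) is detected on an array of 293 histone peptides, modified singly or in combination. An optimized array protocol is followed, and each intensity is the average of quadruplicate measurements with standard deviation.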

[2] = tested on: TAF3
Method in brief: as §1

[3] = tested on: PHRF1 (RP)
Method in brief: as §1

[4] = tested on: KDM5A (1)
Method in brief: as §1

[5] = tested on: BAZ2B
Method in brief: as §1

[6] = tested on: MLL5
Method in brief: as §1

[7] = tested on: SP140L
Method in brief: as §1

[8] = tested on: PHF8
Method in brief: as §1

[9] = tested on: ING4
Method in brief: as §1

[10] = tested on: TRIM66 (PB)
Method in brief: as §1

[11] = tested on: AIRE (PP)
Method in brief: as §1

[12] = tested on: BPTF (PB)
Method in brief: as §1

[13] = tested on: KDM4C (TTP)
Method in brief: as §1

[14] = tested on: RAG2
Method in brief: as §1

[15] = tested on: PHF13
Method in brief: as §1

[16] = tested on: PHF2
Method in brief: as §1

[17] = tested on: ING5
Method in brief: as §1

[18] = tested on: CHD5 (PCC)
Method in brief: as §1

[19] = tested on: ING2
Method in brief: as §1

[20] = tested on: ING3
Method in brief: as §1

[21] = tested on: KDM5B (1)
Method in brief: as §1

[22] = tested on: CHD5 (PPCC)
Method in brief: as §1

[23] = tested on: DIDO1
Method in brief: as §1

[24] = tested on: PHF21A
Method in brief: as §1

[25] = tested on: MORC3 (CW)
Method in brief: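 Readout is array binding signal, reported as the mean and standard deviation over four replicates. Each purified GST-fused PHD domain was incubated at 0.5 μM with a library of 293 modified histone peptides.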

[26] = tested on: KDM5A (3)
Method in brief: as §1

[27] = tested on: DPF2 (PPC2W2)
Method in brief: as §1

[28] = tested on: KDM5B (3)
Method in brief: as §1

[29] = tested on: CHD4 (PPCC)
Method in brief: as §1

[30] = tested on: KDM7A
Method in brief: as §1

[31] = tested on: ING1
Method in brief: as §1

[32] = sheet "Array Heatmap", GST-tagged reader, total n = 4

H3T6p: H3 1-20 [Peptide H3T6p]
Array Heatmap signal, PHF23 [1, 32]: 0.6281
Array Heatmap signal, TAF3 [2, 32]: 0.311
Array Heatmap signal, PHRF1 (RP) [3, 32]: 0.6983
Array Heatmap signal, KDM5A (1) [4, 32]: 0.5432
Array Heatmap signal, BAZ2B [5, 32]: 0.5538
Array Heatmap signal, MLL5 [6, 32]: 0.6202
Array Heatmap signal, SP140L [7, 32]: 0.3962
Array Heatmap signal, PHF8 [8, 32]: 0.4328
Array Heatmap signal, ING4 [9, 32]: 0.5347
Array Heatmap signal, TRIM66 (PB) [10, 32]: 0.7122
Array Heatmap signal, AIRE (PP) [11, 32]: 0.5235
Array Heatmap signal, BPTF (PB) [12, 32]: 0.4149
Array Heatmap signal, KDM4C (TTP) [13, 32]: 0.5715
Array Heatmap signal, RAG2 [14, 32]: 0.3038
Array Heatmap signal, PHF13 [15, 32]: 0.7024
Array Heatmap signal, PHF2 [16, 32]: 0.6372
Array Heatmap signal, ING5 [17, 32]: 0.4298
Array Heatmap signal, CHD5 (PCC) [18, 32]: 0.9074
Array Heatmap signal, ING2 [19, 32]: 0.6272
Array Heatmap signal, ING3 [20, 32]: 0.5766
Array Heatmap signal, KDM5B (1) [21, 32]: 0.7098
Array Heatmap signal, CHD5 (PPCC) [22, 32]: 0.6595
Array Heatmap signal, DIDO1 [23, 32]: 0.87
Array Heatmap signal, PHF21A [24, 32]: 0.4969
Array Heatmap signal, MORC3 (CW) [25, 32]: 0.5106
Array Heatmap signal, KDM5A (3) [26, 32]: 0.5721
Array Heatmap signal, DPF2 (PPC2W2) [27, 32]: 0.8292
Array Heatmap signal, KDM5B (3) [28, 32]: 0.5406
Array Heatmap signal, CHD4 (PPCC) [29, 32]: 0.6596
Array Heatmap signal, KDM7A [30, 32]: 0.3941
Array Heatmap signal, ING1 [31, 32]: 0.6423

H4 (1-23): H4 1-23
Array Heatmap signal, PHF23 ([1]; GST-tagged PHF23, arrays performed twice, n of 4): 0.53
Array Heatmap signal, TAF3 ([2]; GST-tagged TAF3, arrays performed twice, n of 4): 0.3843
Array Heatmap signal, PHRF1 (RP) ([3]; GST-tagged PHRF1 (RP), arrays performed twice, n of 4): 0.532
Array Heatmap signal, KDM5A (1) ([4]; GST-tagged KDM5A (1), arrays performed twice, n of 4): 0.4868
Array Heatmap signal, BAZ2B ([5]; GST-tagged BAZ2B, arrays performed twice, n of 4): 0.467
Array Heatmap signal, MLL5 ([6]; GST-tagged MLL5, arrays performed twice, n of 4): 0.5337
Array Heatmap signal, SP140L ([7]; GST-tagged SP140L, arrays performed twice, n of 4): 0.3814
Array Heatmap signal, PHF8 ([8]; GST-tagged PHF8, arrays performed twice, n of 4): 0.3699
Array Heatmap signal, ING4 ([9]; GST-tagged ING4, arrays performed twice, n of 4): 0.4424
Array Heatmap signal, TRIM66 (PB) ([10]; GST-tagged TRIM66 (PB = PHD + Bromodomain), arrays performed twice, n of 4): 0.7288
Array Heatmap signal, AIRE (PP) ([11]; GST-tagged AIRE (PP), arrays performed twice, n of 4): 0.4854
Array Heatmap signal, BPTF (PB) ([12]; GST-tagged BPTF (PB = PHD + Bromodomain), arrays performed twice, n of 4): 0.3416
Array Heatmap signal, KDM4C (TTP) ([13]; GST-tagged KDM4C (TTP = Tandem Tudor domain + PHD), arrays performed twice, n of 4): 0.5139
Array Heatmap signal, RAG2 ([14]; GST-tagged RAG2, arrays performed twice, n of 4): 0.2838
Array Heatmap signal, PHF13 ([15]; GST-tagged PHF13, arrays performed twice, n of 4): 0.625
Array Heatmap signal, PHF2 ([16]; GST-tagged PHF2, arrays performed twice, n of 4): 0.4784
Array Heatmap signal, ING5 ([17]; GST-tagged ING5, arrays performed twice, n of 4): 0.3618
Array Heatmap signal, CHD5 (PCC) ([18]; GST-tagged CHD5 (PCC = PHD + Dual Chromodomain), arrays performed twice, n of 4): 0.772
Array Heatmap signal, ING2 ([19]; GST-tagged ING2, arrays performed twice, n of 4): 0.5875
Array Heatmap signal, ING3 ([20]; GST-tagged ING3, arrays performed twice, n of 4): 0.4725
Array Heatmap signal, KDM5B (1) ([21]; GST-tagged KDM5B (1), arrays performed twice, n of 4): 0.7073
Array Heatmap signal, CHD5 (PPCC) ([22]; GST-tagged CHD5 (PPCC = Dual PHD + Dual Chromodomain), arrays performed twice, n of 4): 0.5714
Array Heatmap signal, DIDO1 ([23]; GST-tagged DIDO1, arrays performed twice, n of 4): 0.6189
Array Heatmap signal, PHF21A ([24]; GST-tagged PHF21A, arrays performed twice, n of 4): 0.4603
Array Heatmap signal, MORC3 (CW) ([25]; GST-tagged MORC3 (CW = CW-type Zn-finger), arrays performed twice, n of 4): 0.3892
Array Heatmap signal, KDM5A (3) ([26]; GST-tagged KDM5A (3), arrays performed twice, n of 4): 0.4566
Array Heatmap signal, DPF2 (PPC2W2) ([27]; GST-tagged DPF2 (PPC2W2 = Dual PHD + C2W2-type Zn-finger), arrays performed twice, n of 4): 0.7352
Array Heatmap signal, KDM5B (3) ([28]; GST-tagged KDM5B (3), arrays performed twice, n of 4): 0.4835
Array Heatmap signal, CHD4 (PPCC) ([29]; GST-tagged CHD4 (PPCC = Dual PHD + Dual Chromodomain), arrays performed twice, n of 4): 0.5522
Array Heatmap signal, KDM7A ([30]; GST-tagged KDM7A, arrays performed twice, n of 4): 0.4019
Array Heatmap signal, ING1 ([31]; GST-tagged ING1, arrays performed twice, n of 4): 0.4959
